Test results: patent US10421761B2, “Compounds for kinase modulation, and indications therefor” (Plexxikon Inc., priority 2013, dated 2019)

System: B9 cells
Conditions: Repl. 1; B9 cells

CCCS(=O)(=O)Nc1ccc(F)c(C(=O)c2c[nH]c3ncc(-c4ccc(Cl)cc4)cc23)c1F [vemurafenib]
probe 1417962_s_at response, Ghr (growth hormone receptor): 2.19
probe 1418349_at response, Hbegf (heparin-binding EGF-like growth factor): 3.29
probe 1418350_at response, Hbegf (heparin-binding EGF-like growth factor): 2.66
probe 1418538_at response, Kdelr3 (KDEL (Lys-Asp-Glu-Leu) endoplasmic reticulum protein retention receptor 3): 2.08
probe 1418539_a_at response, Ptpre (protein tyrosine phosphatase, receptor type, E): 1.94
probe 1419149_at response, Serpine1 (serine (or cysteine) peptidase inhibitor, clade E, member 1): 2.13
probe 1419188_s_at response, Ccl27a /// Gm13306 (chemokine (C-C motif) ligand 27A /// predicted gene 13306): 2.62
probe 1419317_x_at response, Lce3c (late cornified envelope 3C): 2.53
probe 1419322_at response, Fgd6 (FYVE, RhoGEF and PH domain containing 6): 2.60
probe 1419529_at response, Il23a (interleukin 23, alpha subunit p19): 2.84
probe 1419671_a_at response, Il17rc (interleukin 17 receptor C): 0.49
probe 1419722_at response, Klk8 (kallikrein related-peptidase 8): 2.02
probe 1419816_s_at response, Errfi1 (ERBB receptor feedback inhibitor 1): 3.87
probe 1420352_at response, Prss22 (protease, serine, 22): 3.07
probe 1420380_at response, Cc12 (chemokine (C-C motif) ligand 2): 0.37
probe 1420407_at response, Ltb4r1 (leukotriene B4 receptor 1): 2.29
probe 1420450_at response, Mmp10 (matrix metallopeptidase 10): 3.42
probe 1420537_at response, Kctd4 (potassium channel tetramerisation domain containing 4): 2.36
probe 1420760_s_at response, Ndrg1 (N-myc downstream regulated gene 1): 1.90
probe 1420913_at response, Slco2a1 (solute carrier organic anion transporter family, member 2a1): 1.92
probe 1420955_at response, Vsnl1 (visinin-like 1): 0.38
probe 1421134_at response, Areg (amphiregulin): 4.28
probe 1421269_at response, Ugcg (UDP-glucose ceramide glucosyltransferase): 2.46
probe 1421279_at response, Lamc2 (laminin, gamma 2): 2.23
probe 1421403_at response, Pi15 (peptidase inhibitor 15): 2.04
probe 1421551_s_at response, Ifi202b (interferon activated gene 202B): 3.58
probe 1421668_x_at response, Speer3 (spermatogenesis associated glutamate (E)-rich protein 3): 2.74
probe 1421679_a_at response, Cdkn1a (cyclin-dependent kinase inhibitor 1A (P21)): 4.27
probe 1421888_x_at response, Aplp2 (amyloid beta (A4) precursor-like protein 2): 0.65
probe 1421943_at response, Tgfa (transforming growth factor alpha): 1.93
probe 1422028_a_at response, Ets1 (E26 avian leukemia oncogene 1, 5′ domain): 2.13
probe 1422101_at response, Tnfrsf23 (tumor necrosis factor receptor superfamily, member 23): 2.04
probe 1422138_at response, Plau (plasminogen activator, urokinase): 2.73
probe 1422139_at response, Plau (plasminogen activator, urokinase): 2.45
probe 1422222_at response, Ivl (involucrin): 2.50
probe 1422240_s_at response, Sprr2h (small proline-rich protein 2H): 1.95
probe 1422273_at response, Mmp1b (matrix metallopeptidase 1b (interstitial collagenase)): 3.30
probe 1422324_a_at response, Pthlh (parathyroid hormone-like peptide): 2.11
probe 1422537_a_at response, Id2 (inhibitor of DNA binding 2): 0.53
probe 1422771_at response, Smad6 (MAD homolog 6 (Drosophila)): 0.46
probe 1422924_at response, Tnfsf9 (tumor necrosis factor (ligand) superfamily, member 9): 2.01
probe 1423017_a_at response, Il1rn (interleukin 1 receptor antagonist): 2.63
probe 1423543_at response, Swap70 (SWA-70 protein): 1.88
probe 1423597_at response, Atp8a1 (ATPase, aminophospholipid transporter (APLT), class I, type 8A, member 1): 2.02
probe 1423635_at response, Bmp2 (bone morphogenetic protein 2): 2.41
probe 1423690_s_at response, Gpsm1 (G-protein signalling modulator 1 (AGS3-like, C. elegans)): 3.37
probe 1423933_a_at response, 1600029D21Rik (RIKEN cDNA 1600029D21 gene): 2.06
probe 1424022_at response, Osgin1 (oxidative stress induced growth inhibitor 1): 2.27
probe 1424090_at response, Sdcbp2 (syndecan binding protein (syntenin) 2): 4.08
probe 1424306_at response, Elovl4 (elongation of very long chain fatty acids (FEN1/Elo2, SUR4/Elo3, yeast)-like 4): 2.51
probe 1424383_at response, Tmem51 (transmembrane protein 51): 2.58
probe 1424471_at response, Rapgef3 (Rap guanine nucleotide exchange factor (GEF) 3): 2.18
probe 1424638_at response, Cdkn1a (cyclin-dependent kinase inhibitor 1A (P21)): 2.76
probe 1424783_a_at response, Ugt1a1 /// Ugt1a10 /// Ugt1a2 /// Ugt1a5 /// Ugt1a6a /// Ugt1a6b /// Ugt1aTc /// Ugt1a9 (UDP glucuronosyltransferase 1 family): 0.39
probe 1425452_s_at response, Fam84a (family with sequence similarity 84, member A): 2.41
probe 1425660_at response, Btbd3 (BTB (POZ) domain containing 3): 2.08
probe 1426037_a_at response, Rgs16 (regulator of G-protein signaling 16): 3.19
probe 1426181_a_at response, I124 (interleukin 24): 5.52
probe 1426260_a_at response, Ugt1a1 /// Ugt1a10 /// Ugt1a2 /// Ugt1a5 /// Ugt1a6a /// Ugt1a6b /// Ugt1aTc /// Ugt1a9 (UDP glucuronosyltransferase 1 family): 0.39
